Consider 9 compounds from patent US6812252B2, “Acylsulfonamide derivatives” (Ajinomoto Co., Inc., priority 2000, dated 2004).

Molecules are shown by their SMILES.

For the compound `CCCCCC(=O)NS(=O)(=O)c1ccccc1NC(=O)c1ccc(C#Cc2cccc(C(F)(F)F)c2)cc1` [Example 1, 4-(3-Trifluoromethyl)phenylethynyl-N-(2-hexanoylaminosulfonylphenyl)benzamide], the melting point lay in the range of 194 to 196 °C.

On to `CC(=O)CCCC(=O)NS(=O)(=O)c1ccccc1NC(=O)c1ccc(C#Cc2cccc(C(F)(F)F)c2)cc1` [Example 2, 4-(3-Trifluoromethyl)phenylethynyl-N-(2-(5-ketohexanoylamino)-sulfonylphenyl)benzamide], for which the melting point lay within 169 to 171 °C.

Compound `CCCOCC(=O)NS(=O)(=O)c1ccccc1NC(=O)c1ccc(C#Cc2cccc(C(F)(F)F)c2)cc1` [Example 3, 4-(3-Trifluoromethyl)phenylethynyl-N-(2-(2-propyloxyacetylamino)sulfonylphenyl)benzamide] returned a melting point of 175 to 177 °C.

`CCCCCC(=O)NS(=O)(=O)c1ccccc1NC(=O)c1ccc(C#Cc2ccc(C(F)(F)F)cc2)cc1` [Example 4, 4-(4-Trifluoromethyl)phenylethynyl-N-(2-hexanoylaminosulfonylphenyl)benzamide]: the melting point was in the range of 210 to 212 °C.

On to `CCCCCC(=O)NS(=O)(=O)c1ccccc1NC(=O)c1ccc(C#Cc2ccc(OC(F)(F)F)cc2)cc1` [Example 5, 4-(4-Trifluoromethoxy)phenylethynyl-N-(2-hexanoylaminosulfonylphenyl)benzamide], for which the melting point was in the range of 197 to 199 °C.

Compound `CC(=O)CCCC(=O)NS(=O)(=O)c1ccccc1NC(=O)c1ccc(C#Cc2ccc(OC(F)(F)F)cc2)cc1` [Example 6, 4-(4-Trifluoromethoxy)phenylethynyl-N-(2-(5-ketohexanoylamino)-sulfonylphenyl)benzamide] yielded a melting point of 204 to 205 °C.

With `CCCCCC(=O)NS(=O)(=O)c1ccccc1NC(=O)c1ccc(C#Cc2ccc(F)cc2)cc1` [Example 7, 4-(4-Fluoro)phenylethynyl-N-(2-hexanoylaminosulfonylphenyl)benzamide], the melting point fell in the range of 183 to 186 °C.

Regarding `CC(=O)CCCC(=O)NS(=O)(=O)c1ccccc1NC(=O)c1ccc(C#Cc2ccc(F)cc2)cc1` [Example 8, 4-(4-Fluoro)phenylethynyl-N-(2-(5-ketohexanoylamino)sulfonylphenyl)benzamide], the melting point is 179 to 181 °C.

Compound `CCCCCC(=O)NS(=O)(=O)c1ccccc1NC(=O)c1ccc(C#Cc2cccc(F)c2)cc1` [Example 9, 4-(3-Fluoro)phenylethynyl-N-(2-hexanoylaminosulfonylphenyl)benzamide] came in with a melting point of 183 to 186 °C.

A word on the melting point: it is the temperature, or range, at which the solid turns liquid.
